PubChem BioAssay (NCI)
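All cell lines were grown in 96-well plates and treated with compound for 48 hours. Abbreviation: GI50, concentration required for 50% inhibition of growth. TGI: total growth inhibition.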

Key:
Assay in all cases: growth of human tumour cells (NCI), 48 h
[1] = test system: HCC-2998 colon
[2] = test system: HT29 colon
[3] = test system: K-562 leukemia
[4] = test system: LOX IMVI melanoma
[5] = test system: M14 melanoma
[6] = test system: MCF7 breast
[7] = test system: SF-268 CNS
[8] = test system: SF-295 CNS
[9] = test system: SK-MEL-5 melanoma
[10] = test system: UO-31 renal

In the case of `O=C1c2ccccc2-c2c1c1ccccc1c(=O)n2CCO`, the TGI [1] is reported as > 100 µM, the TGI [2] is reported as > 100 µM and the TGI [3] is reported as > 100 µM. For the same compound, the TGI [4] was > 100 µM, the TGI [5] was > 100 µM and the TGI [6] was > 100 µM. The TGI [7] was > 100 µM, the TGI [8] was > 96.3 µM and the TGI [9] was 33.1 µM. For the same compound, the TGI [10] was > 81 µM.
For `Nc1ccn(C=C=CCO)c(=O)n1`, the GI50 [1] was > 1000 µM, the TGI [1] was > 1000 µM and the GI50 [2] was > 1000 µM. The TGI [2] was > 1000 µM, the GI50 [3] was > 1000 µM and the TGI [3] was > 1000 µM. For the same compound, the GI50 [4] was > 1000 µM, the TGI [4] was > 1000 µM and the GI50 [5] was > 1000 µM. For the same compound, the TGI [5] was > 1000 µM, the GI50 [6] was > 1000 µM and the TGI [6] was > 1000 µM. The GI50 [7] was > 1000 µM, the TGI [7] was > 1000 µM and the GI50 [8] was > 1000 µM. For the same compound, the TGI [8] was > 1000 µM, the GI50 [9] was > 1000 µM and the TGI [9] was > 1000 µM. For the same compound, the GI50 [10] was > 1000 µM and the TGI [10] was > 1000 µM.
For `C[C@H]1[C@H](OC(=O)CCC(=O)O)O[C@@H]2O[C@]3(C)CC[C@H]4[C@H](C)CC[C@@H]1[C@@]24OO3`, the GI50 [1] was 1.48 µM, the TGI [1] was 24 µM and the GI50 [2] was 0.627 µM. It also gave a TGI [2] of 16.8 µM, a GI50 [3] of 0.443 µM and a TGI [3] of 10 µM. The GI50 [4] was 0.421 µM, the TGI [4] was 4.79 µM and the GI50 [5] was 0.777 µM. It also gave a TGI [5] of 14.8 µM, a GI50 [6] of 0.698 µM and a TGI [6] of 20.8 µM. For the same compound, the GI50 [7] was 1.04 µM, the TGI [7] was 43.2 µM and the GI50 [8] was 0.518 µM. For the same compound, the TGI [8] was > 67.3 µM, the GI50 [9] was 0.315 µM and the TGI [9] was 11.3 µM. For the same compound, the GI50 [10] was 0.398 µM and the TGI [10] was 7.38 µM.
In the case of `O/N=C1\CCc2cc(-c3nc(C4CCNCC4)[nH]c3-c3ccncc3)ccc21`, the GI50 [1] is reported as > 25 µM, the TGI [1] is reported as > 25 µM and the GI50 [2] is reported as > 16.4 µM. The TGI [2] was > 25 µM, the GI50 [3] was > 25 µM and the TGI [3] was > 25 µM. The GI50 [4] was > 25 µM, the TGI [4] was > 25 µM and the GI50 [5] was 7.57 µM. The TGI [5] was > 25 µM, the GI50 [6] was > 25 µM and the TGI [6] was > 25 µM. The GI50 [7] was > 25 µM, the TGI [7] was > 25 µM and the GI50 [8] was > 25 µM. For the same compound, the TGI [8] was > 25 µM, the GI50 [9] was > 25 µM and the TGI [9] was > 25 µM. The GI50 [10] was > 25 µM and the TGI [10] was > 25 µM.
In the case of `COc1cccc(NC(=O)c2sc3nc4c(cc3c2N)CCCC4)c1`, the GI50 [1] is reported as 1.6 µM, the TGI [1] is reported as > 100 µM and the GI50 [4] is reported as 0.729 µM. For the same compound, the TGI [4] was > 100 µM, the GI50 [6] was 0.314 µM and the TGI [6] was > 100 µM. The GI50 [7] was 0.714 µM, the TGI [7] was 37 µM and the GI50 [8] was 0.481 µM. For the same compound, the TGI [8] was 14 µM, the GI50 [9] was 0.303 µM and the TGI [9] was 2.67 µM. The GI50 [10] was 0.859 µM and the TGI [10] was > 100 µM.
In the case of `CC1(C)CC(=O)C2=C(C1)NC(SSC1=C(C#N)C(c3ccccc3)C3=C(CC(C)(C)CC3=O)N1)=C(C#N)C2c1ccccc1` (stereo not given), the GI50 [1] is reported as 27.8 µg/mL, the TGI [1] is reported as 52.6 µg/mL and the GI50 [2] is reported as 26.8 µg/mL. It also gave a TGI [2] of 48.2 µg/mL, a GI50 [3] of 42.3 µg/mL and a TGI [3] of 145 µg/mL. It also gave a GI50 [4] of 27.2 µg/mL, a TGI [4] of 49.3 µg/mL and a GI50 [5] of 22.5 µg/mL. The TGI [5] was 43.6 µg/mL, the GI50 [6] was 35.6 µg/mL and the TGI [6] was 85.6 µg/mL. It also gave a GI50 [7] of 28 µg/mL, a TGI [7] of 53.7 µg/mL and a GI50 [8] of 112 µg/mL. For the same compound, the TGI [8] was > 150 µg/mL, the GI50 [9] was 27.8 µg/mL and the TGI [9] was 48.7 µg/mL. The GI50 [10] was 21 µg/mL and the TGI [10] was 40.5 µg/mL.
`COC(=O)[C@]12CC[C@@H](C)[C@H](C)[C@@H]1C1=CC[C@@H]3[C@@]4(C)CC(=O)[C@H](O)[C@@]5(C)COC(=C45)C[C@@]3(C)[C@]1(C)CC2` showed a GI50 [1] of 17.7 µM, a TGI [1] of 33.1 µM and a GI50 [2] of 19.2 µM. The TGI [2] was 34.7 µM, the GI50 [3] was 20.5 µM and the TGI [3] was 41.8 µM. It also gave a GI50 [4] of 17 µM, a TGI [4] of 31.1 µM and a GI50 [5] of 18.5 µM. For the same compound, the TGI [5] was 36.9 µM, the GI50 [6] was 16.9 µM and the TGI [6] was 35.6 µM. It also gave a GI50 [7] of 19.2 µM, a TGI [7] of 37.8 µM and a GI50 [8] of 17.9 µM. For the same compound, the TGI [8] was 33.7 µM, the GI50 [9] was 16.6 µM and the TGI [9] was 30.2 µM. It also gave a GI50 [10] of 16.9 µM and a TGI [10] of 32.8 µM.
For `COC(=O)c1cnc(=O)n(C2CC(O)C(CO)O2)c1` (stereo not given), the GI50 [1] was > 100 µM, the TGI [1] was > 100 µM and the GI50 [2] was > 100 µM. The TGI [2] was > 100 µM, the GI50 [3] was > 100 µM and the TGI [3] was > 100 µM. The GI50 [4] was > 100 µM, the TGI [4] was > 100 µM and the GI50 [5] was > 100 µM. For the same compound, the TGI [5] was > 100 µM, the GI50 [6] was > 100 µM and the TGI [6] was > 100 µM. For the same compound, the GI50 [7] was > 100 µM, the TGI [7] was > 100 µM and the GI50 [8] was > 100 µM. The TGI [8] was > 100 µM, the GI50 [9] was > 100 µM and the TGI [9] was > 100 µM. The GI50 [10] was > 100 µM and the TGI [10] was > 100 µM.
Work on `O=C1/C(=C\c2ccc(Cl)cc2)CN(C(=S)Nc2ccccc2)C/C1=C\c1ccc(Cl)cc1` yielded a GI50 [1] of 0.755 µM, a TGI [1] of 1.94 µM and a GI50 [2] of 0.277 µM. The TGI [2] was 0.719 µM, the GI50 [3] was 0.356 µM and the TGI [3] was 7.67 µM. For the same compound, the GI50 [4] was 0.203 µM, the TGI [4] was 0.432 µM and the GI50 [5] was 1.7 µM. It also gave a TGI [5] of 4.2 µM, a GI50 [6] of 0.292 µM and a TGI [6] of 1.15 µM. The GI50 [7] was 0.754 µM, the TGI [7] was 2.26 µM and the GI50 [8] was 0.389 µM. For the same compound, the TGI [8] was 1.73 µM, the GI50 [9] was 1.66 µM and the TGI [9] was 3.12 µM. For the same compound, the GI50 [10] was 1.21 µM and the TGI [10] was 2.56 µM.
With `Cc1ccc(S(=O)(=O)N/N=C/C(Br)=C(/Br)C(=O)O)cc1` the TGI [1] was 15.7 µM, the TGI [2] was 26.8 µM and the TGI [4] was 11 µM. For the same compound, the TGI [5] was 18.2 µM, the TGI [6] was 51 µM and the TGI [7] was 30.2 µM. It also gave a TGI [8] of 36.3 µM, a TGI [9] of 25.8 µM and a TGI [10] of 20 µM.
`COC(=O)Nc1nc2ccc(C(=O)c3ccc[nH]3)cc2[nH]1` was tested, and the TGI [1] was > 100 µM, the TGI [2] was > 100 µM and the TGI [4] was > 100 µM. For the same compound, the TGI [5] was > 26.9 µM, the TGI [6] was > 100 µM and the TGI [7] was > 100 µM. The TGI [8] was > 100 µM.
With `O=C(CCCc1c[nH]c2ccccc12)NC1CC(=O)c2c(Br)sc(Br)c21` (stereo not given) the GI50 [1] was 2.06 µM, the TGI [1] was 4.03 µM and the GI50 [2] was 7.13 µM. It also gave a TGI [2] of 22 µM, a GI50 [3] of 2.01 µM and a TGI [3] of 5.56 µM. It also gave a GI50 [4] of 1.9 µM, a TGI [4] of 3.75 µM and a GI50 [6] of 10.1 µM. For the same compound, the TGI [6] was 29.5 µM, the GI50 [7] was 10.5 µM and the TGI [7] was 27.1 µM. It also gave a GI50 [8] of 22.7 µM, a TGI [8] of 54.4 µM and a GI50 [9] of 14.5 µM. The TGI [9] was 30 µM, the GI50 [10] was 22.2 µM and the TGI [10] was 63.1 µM.
In the case of `COc1cc(C(=O)O)c([N+](=O)[O-])c(OC)c1OC`, the TGI [1] is reported as > 100 µM, the TGI [2] is reported as > 100 µM and the TGI [4] is reported as > 100 µM. For the same compound, the TGI [5] was > 100 µM, the TGI [6] was > 100 µM and the TGI [7] was > 100 µM. For the same compound, the TGI [8] was > 100 µM, the TGI [9] was > 100 µM and the TGI [10] was > 100 µM.
In the case of `Cc1cc(NC(=O)C2c3ccccc3C(=O)N(CC(C)C)C2c2cccs2)no1` (stereo not given), the GI50 [1] is reported as > 100 µM, the TGI [1] is reported as > 100 µM and the GI50 [2] is reported as 69.5 µM. The TGI [2] was > 100 µM, the GI50 [3] was 50.9 µM and the TGI [3] was > 100 µM. For the same compound, the GI50 [4] was > 100 µM, the TGI [4] was > 100 µM and the GI50 [6] was 60 µM. For the same compound, the TGI [6] was > 100 µM, the GI50 [7] was > 100 µM and the TGI [7] was > 100 µM. The GI50 [8] was 29 µM, the TGI [8] was > 100 µM and the GI50 [9] was 73.2 µM. For the same compound, the TGI [9] was > 100 µM, the GI50 [10] was 30.2 µM and the TGI [10] was > 100 µM.
